Assays:
Assay in all cases: relative viability (nuclei count vs DMSO), 5 days (fraction); higher = more cells survive
Fedratinib + Linsitinib = compound: Cc1cnc(Nc2ccc(OCCN3CCCC3)cc2)nc1Nc1cccc(S(=O)(=O)NC(C)(C)C)c1 [Fedratinib] + C[C@]1(O)C[C@@H](c2nc(-c3ccc4ccc(-c5ccccc5)nc4c3)c3c(N)nccn32)C1 [Linsitinib] (partner 1 µM)
How it was run: (§1)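 Each reported value is a median over duplicate plates. It expresses relative viability: treated-well nuclei count divided by vehicle-well nuclei count. Lung cancer cell lines in 1536-well plates were dosed by pin tool a day after seeding, alone with one drug or with a fixed anchor-drug dose plus five library-drug doses (not always all listed) in √10 steps, and nuclei were counted after 5 days.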

Fedratinib + Bortezomib = compound: Cc1cnc(Nc2ccc(OCCN3CCCC3)cc2)nc1Nc1cccc(S(=O)(=O)NC(C)(C)C)c1 [Fedratinib] + CC(C)C[C@H](NC(=O)[C@H](Cc1ccccc1)NC(=O)c1cnccn1)B(O)O [Bortezomib] (partner 0.002 µM)
How it was run: as §1

GW-2580 + Crizotinib = compound: COC1=CC=C(C=C1)COC2=C(C=C(C=C2)CC3=CN=C(N=C3N)N)OC [GW-2580] + C[C@@H](Oc1cc(-c2cnn(C3CCNCC3)c2)cnc1N)c1c(Cl)ccc(F)c1Cl [Crizotinib] (partner 1 µM)
How it was run: as §1

Fedratinib + Foretinib = compound: Cc1cnc(Nc2ccc(OCCN3CCCC3)cc2)nc1Nc1cccc(S(=O)(=O)NC(C)(C)C)c1 [Fedratinib] + COc1cc2c(Oc3ccc(NC(=O)C4(C(=O)Nc5ccc(F)cc5)CC4)cc3F)ccnc2cc1OCCCN1CCOCC1 [Foretinib] (partner 0.25 µM)
How it was run: as §1

Fedratinib + Trametinib = compound: Cc1cnc(Nc2ccc(OCCN3CCCC3)cc2)nc1Nc1cccc(S(=O)(=O)NC(C)(C)C)c1 [Fedratinib] + CC(=O)Nc1cccc(-n2c(=O)n(C3CC3)c(=O)c3c(Nc4ccc(I)cc4F)n(C)c(=O)c(C)c32)c1 [Trametinib] (partner 0.02 µM)
How it was run: as §1

GW-2580 + Tozasertib = compound: COC1=CC=C(C=C1)COC2=C(C=C(C=C2)CC3=CN=C(N=C3N)N)OC [GW-2580] + Cc1cc(Nc2cc(N3CCN(C)CC3)nc(Sc3ccc(NC(=O)C4CC4)cc3)n2)n[nH]1 [Tozasertib] (partner 0.1 µM)
How it was run: as §1

Row | Cell Line | relative viability (Fedratinib + Linsitinib; first compound 0.1 µM) | relative viability (Fedratinib + Linsitinib; first compound 0.3162 µM) | relative viability (Fedratinib + Linsitinib; first compound 1 µM) | relative viability (Fedratinib + Bortezomib; first compound 0.1 µM) | relative viability (Fedratinib + Bortezomib; first compound 0.3162 µM) | relative viability (Fedratinib + Bortezomib; first compound 1 µM) | relative viability (GW-2580 + Crizotinib; first compound 0.08 µM) | relative viability (GW-2580 + Crizotinib; first compound 0.8 µM) | relative viability (GW-2580 + Crizotinib; first compound 2.53 µM) | relative viability (GW-2580 + Crizotinib; first compound 8 µM) | relative viability (Fedratinib + Foretinib; first compound 0.1 µM) | relative viability (Fedratinib + Foretinib; first compound 0.3162 µM) | relative viability (Fedratinib + Foretinib; first compound 1 µM) | relative viability (Fedratinib + Trametinib; first compound 0.1 µM) | relative viability (Fedratinib + Trametinib; first compound 0.3162 µM) | relative viability (Fedratinib + Trametinib; first compound 1 µM) | relative viability (GW-2580 + Tozasertib; first compound 0.08 µM) | relative viability (GW-2580 + Tozasertib; first compound 0.8 µM) | relative viability (GW-2580 + Tozasertib; first compound 2.53 µM) | relative viability (GW-2580 + Tozasertib; first compound 8 µM)
1 | 201T | 1.03 | 1.02 | 0.974 | 1.01 | 1.07 | 1.08 | 1.04 | 1.06 | 1.07 | 0.993 | 1.1 | 1.08 | 0.895 | 0.697 | 0.769 | 0.718 | 0.998 | 0.935 | 0.96 | 0.82
2 | A549 | 0.56 | 0.539 | 0.601 |  |  |  | 0.722 | 0.878 | 0.737 | 0.543 | 0.896 | 0.938 | 0.892 |  |  |  |  |  |  | 
3 | A-427 | 1.13 | 1.05 | 1.11 | 0.95 | 0.889 | 0.558 | 0.926 | 1.07 | 0.785 | 0.663 | 1.04 | 1 | 1.05 | 0.633 | 0.649 | 0.627 | 0.198 | 0.208 | 0.19 | 0.172
4 | ABC-1 | 0.625 | 0.859 | 0.713 | 0.339 | 0.363 | 0.186 | 1.1 | 1.3 | 0.901 | 0.783 | 1.03 | 1.22 | 0.96 |  |  |  | 0.157 | 0.147 | 0.179 | 0.193
5 | BEN | 0.779 | 0.914 | 0.852 | 0.673 | 0.607 | 0.559 | 0.937 | 1 | 0.785 | 0.958 | 0.685 | 0.683 | 0.472 | 0.846 | 0.945 | 0.926 | 0.684 | 0.396 | 0.577 | 0.492
6 | CAL-12T | 0.739 | 0.819 | 0.853 | 0.963 | 1.07 | 0.805 | 0.632 |  | 0.59 | 0.577 | 0.934 | 0.992 | 1.08 | 0.4 | 0.332 | 0.304 | 0.422 | 0.365 | 0.349 | 0.297
7 | COR-L23 | 1.04 | 0.906 | 0.759 | 1.14 | 0.975 | 0.938 | 0.808 | 0.684 | 0.549 | 0.562 | 0.912 | 0.838 | 0.921 | 0.576 | 0.604 | 0.155 | 0.209 | 0.202 | 0.179 | 0.185
8 | COR-L 105 | 0.951 | 0.817 | 0.827 | 0.685 | 0.839 | 0.289 | 0.782 | 0.827 | 0.787 | 0.677 | 0.866 | 1.03 | 0.676 | 0.39 | 0.442 | 0.422 | 0.317 | 0.311 | 0.352 | 0.387
9 | Calu-6 | 1.02 | 0.953 | 0.917 | 1.05 | 0.981 | 0.771 | 0.85 | 0.857 | 0.769 | 0.674 | 0.855 | 0.857 | 0.784 |  |  |  |  |  |  | 
10 | ChaGo-K-1 |  |  |  | 0.932 | 1.1 | 0.777 | 1.08 | 1.21 | 1.18 | 1.07 | 0.811 | 0.923 | 0.899 | 0.765 | 0.841 | 0.873 | 0.257 | 0.224 | 0.233 | 0.234
11 | EBC-1 | 0.764 | 0.937 | 0.814 | 0.478 | 0.501 | 0.39 | 0.205 | 0.163 | 0.19 | 0.164 | 0.112 | 0.103 | 0.1 |  |  |  |  |  |  | 
12 | EKVX | 1.09 | 0.967 | 0.982 | 1.11 | 1.11 | 1.06 | 1.09 | 1.52 | 0.979 | 0.935 | 0.791 | 0.687 | 0.828 | 0.333 | 0.293 | 0.363 | 0.553 | 0.428 | 0.313 | 0.321
13 | EMC-BAC-2 | 0.802 | 0.832 | 0.796 | 1.14 | 1.01 | 1.09 | 0.779 | 0.771 | 0.75 | 0.803 | 1 | 1.01 | 1 | 0.931 | 0.939 | 0.978 | 0.279 | 0.261 | 0.24 | 0.261
14 | EPLC-272H | 1.45 | 0.983 | 0.993 | 0.946 | 0.83 | 0.451 | 0.831 | 1.13 | 0.954 | 0.904 | 0.558 | 0.684 | 0.472 | 0.275 | 0.281 | 0.278 | 0.321 | 0.266 |  | 0.214
15 | H3255 | 1.04 | 1.03 | 0.926 | 0.63 | 0.742 | 0.605 | 0.837 | 0.963 | 0.744 | 0.914 | 0.82 | 0.766 | 0.877 | 0.506 | 0.69 | 0.706 | 0.619 | 0.217 | 0.664 | 0.47
16 | HARA | 1.09 | 0.975 | 0.979 | 1.41 | 1.18 | 0.404 | 1.15 | 1.05 | 1.12 | 0.939 | 0.948 | 0.493 | 0.782 | 0.521 | 0.907 | 0.546 | 0.111 | 0.127 | 0.0978 | 0.0792

Reference: the supplement of paper PMC10307832
